Test results as given in US12428406B2 (PMV Pharmaceuticals, Inc., priority 2019, dated 2025).

Biological target: T1, p53 Y220C (Homo sapiens, UniProt P04637, Y220C)
T1 construct: The recombinant protein was a truncation mutant containing only amino acids 94-312 of p53; made in house; host or cells: E. coli
Test: In vitro DNA binding activity assay (HTRF / TR-FRET): stabilization of p53 Y220C and increase of its DNA binding activity
Assay type: biochemical
Details: recombinant His-tagged p53 Y220C DNA binding domain (aa 94-312), biotin-labeled consensus DNA, incubated at 27° C. or 29° C. for 60 min
Outline: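 Stabilization of the mutant is inferred from increased binding of His-tagged p53 Y220C to a biotin-labeled consensus DNA, detected by HTRF with europium-streptavidin and APC-anti-His antibody. The concentration giving a 50% rise over compound-free binding is reported as SC150.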

T1 sequence (P04637 94-312, change not shown): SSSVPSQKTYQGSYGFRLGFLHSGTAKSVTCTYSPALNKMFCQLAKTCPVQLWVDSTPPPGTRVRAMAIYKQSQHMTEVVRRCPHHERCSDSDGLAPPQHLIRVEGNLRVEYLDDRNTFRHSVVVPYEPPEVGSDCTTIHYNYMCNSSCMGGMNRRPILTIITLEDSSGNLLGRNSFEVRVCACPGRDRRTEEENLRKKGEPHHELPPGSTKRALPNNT

Compound | SC150 (concentration of the compound required to increase the DNA binding activity by 50%)
CNC(=O)c1ccc(NCC#Cc2cc3c(N[C@H]4CC[C@H](N5CCC6(CCO6)CC5)CC4)cccc3n2CC(F)(F)F)c(OC)c1 [Compound 385A, 3-methoxy-N-methyl-4-{[3-(4-{[(1R,4R)-4-{1-oxa-7-azaspiro[3.5]nonan-7-yl}cyclohexyl]amino}-1-(2,2,2-trifluoroethyl)-1H-indol-2-yl)prop-2-yn-1-yl]amino}benzamide] | + (+ = 0 μM ≤ SC150 < 0.05 μM)
COc1cc(S(N)(=O)=O)ccc1NCC#Cc1cc2c(N[C@H]3CC[C@H](N4CCC5(CCO5)CC4)CC3)cccc2n1CC(F)(F)F [Compound 387A, 3-methoxy-4-{[3-(4-{[(1R,4R)-4-{1-oxa-7-azaspiro[3.5]nonan-7-yl}cyclohexyl]amino}-1-(2,2,2-trifluoroethyl)-1H-indol-2-yl)prop-2-yn-1-yl]amino}benzene-1-sulfonamide] | + (+ = 0 μM ≤ SC150 < 0.05 μM)
CS(=O)(=O)c1ccc(NCC#Cc2cc3c(N[C@H]4CC[C@H](N5CCC6(CC5)COC6)CC4)cccc3n2CC(F)(F)F)c(OCC#N)c1 [Compound 389A, 2-(5-methanesulfonyl-2-{[3-(4-{[(1R,4R)-4-{2-oxa-7-azaspiro[3.5]nonan-7-yl}cyclohexyl]amino}-1-(2,2,2-trifluoroethyl)-1H-indol-2-yl)prop-2-yn-1-yl]amino}phenoxy)acetonitrile] | + (+ = 0 μM ≤ SC150 < 0.05 μM)
CS(=O)(=O)c1ccc(NCC#Cc2cc3c(N[C@H]4CC[C@@H](N5CCC6(CC5)COC6)CC4)cccc3n2CC(F)(F)F)c(OCC#N)c1 [Compound 390A, 2-(5-methanesulfonyl-2-{[3-(4-{[(1S,4S)-4-{2-oxa-7-azaspiro[3.5]nonan-7-yl}cyclohexyl]amino}-1-(2,2,2-trifluoroethyl)-1H-indol-2-yl)prop-2-yn-1-yl]amino}phenoxy)acetonitrile] | + (+ = 0 μM ≤ SC150 < 0.05 μM)
CS(=O)(=O)c1ccc(NCC#Cc2cc3c(N[C@H]4CC[C@H](N5CCC6(CC5)COC6)CC4)cccc3n2CC(F)(F)F)c(OCF)c1 [Compound 391A, 2-(3-{[2-(fluoro-methoxy)-4-methane-sulfonylphenyl]amino}prop-1-yn-1-yl)-N-[(1R,4R)-4-(2-oxa-7-azaspiro[3.5]nonan-7-yl}cyclohexyl]-1-(2,2,2-trifluoroethyl)-1H-indol-4-amine] | + (+ = 0 μM ≤ SC150 < 0.05 μM)
CCOc1cc(S(C)(=O)=O)ccc1NCC#Cc1cc2c(N[C@H]3CC[C@H](N4CCC5(CC4)COC5)CC3)cccc2n1CC(F)(F)F [Compound 393A, N-((1R,4R)-4-(2-oxa-7-azaspiro[3.5]nonan-7-yl)cyclohexyl)-2-(3-((2-ethoxy-4-(methylsulfonyl)phenyl)amino)prop-1-yn-1-yl)-1-(2,2,2-trifluoroethyl)-1H-indol-4-amine] | + (+ = 0 μM ≤ SC150 < 0.05 μM)
CNS(=O)(=O)c1ccc(NCC#Cc2cc3c(N[C@H]4CC[C@H](N5CCC6(CC5)COC6)CC4)cccc3n2CC(F)(F)F)c(OC)c1 [Compound 395A, 3-methoxy-N-methyl-4-{[3-(4-{[(1R,4R)-4-{2-oxa-7-azaspiro[3.5]nonan-7-yl}cyclohexyl]amino}-1-(2,2,2-trifluoroethyl)-1H-indol-2-yl)prop-2-yn-1-yl]amino}benzene-1-sulfonamide] | + (+ = 0 μM ≤ SC150 < 0.05 μM)
COc1cc(S(C)(=O)=O)ccc1NCC#Cc1cc2c(N[C@H]3CC[C@H](N4CC5CC(C4)O5)CC3)cccc2n1CC(F)(F)F [Compound 398A, 2-{3-[(4-methanesulfonyl-2-methoxyphenyl)amino]prop-1-yn-1-yl}-N-[(1R,4R)-4-{6-oxa-3-azabicyclo[3.1.1]heptan-3-yl}cyclohexyl]-1-(2,2,2-trifluoroethyl)-1H-indol-4-amine] | + (+ = 0 μM ≤ SC150 < 0.05 μM)
COc1cc(S(C)(=O)=O)ccc1NCC#Cc1cc2c(N[C@H]3CC[C@@H](N4CC5CC(C4)O5)CC3)cccc2n1CC(F)(F)F [Compound 399A, 2-{3-[(4-methanesulfonyl-2-methoxyphenyl)amino]prop-1-yn-1-yl}-N-[(1S,4S)-4-{6-oxa-3-azabicyclo[3.1.1]heptan-3-yl}cyclohexyl]-1-(2,2,2-trifluoroethyl)-1H-indol-4-amine] | + (+ = 0 μM ≤ SC150 < 0.05 μM)
COc1cc(S(N)(=O)=O)ccc1NCC#Cc1cc2c(N[C@H]3CC[C@H](N4CC5CC(C4)O5)CC3)cccc2n1CC(F)(F)F [Compound 400A, 3-methoxy-4-{[3-(4-{[(1R,4R)-4-{6-oxa-3-azabicyclo[3.1.1]heptan-3-yl}cyclohexyl]amino}-1-(2,2,2-trifluoroethyl)-1H-indol-2-yl)prop-2-yn-1-yl]amino}benzene-1-sulfonamide] | + (+ = 0 μM ≤ SC150 < 0.05 μM)
COc1cc(S(N)(=O)=O)ccc1NCC#Cc1cc2c(N[C@H]3CC[C@@H](N4CC5CC(C4)O5)CC3)cccc2n1CC(F)(F)F [Compound 401A, 3-methoxy-4-{[3-(4-{[(1S,4S)-4-{6-oxa-3-azabicyclo[3.1.1]heptan-3-yl}cyclohexyl]amino}-1-(2,2,2-trifluoroethyl)-1H-indol-2-yl)prop-2-yn-1-yl]amino}benzene-1-sulfonamide] | ++ (++ = 0.05 μM ≤ SC150 < 0.1 μM)
CNC(=O)c1ccc(NCC#Cc2cc3c(N[C@H]4CC[C@H](N5CC6CC(C5)O6)CC4)cccc3n2CC(F)(F)F)c(OC)c1 [Compound 402A, 3-methoxy-N-methyl-4-{[3-(4-{[(1R,4R)-4-{6-oxa-3-azabicyclo[3.1.1]heptan-3-yl}cyclohexyl]amino}-1-(2,2,2-trifluoroethyl)-1H-indol-2-yl)prop-2-yn-1-yl]amino}benzamide] | + (+ = 0 μM ≤ SC150 < 0.05 μM)
CNC(=O)c1ccc(NCC#Cc2cc3c(N[C@H]4CC[C@@H](N5CC6CC(C5)O6)CC4)cccc3n2CC(F)(F)F)c(OC)c1 [Compound 403A, 3-methoxy-N-methyl-4-{[3-(4-{[(1S,4S)-4-{6-oxa-3-azabicyclo[3.1.1]heptan-3-yl}cyclohexyl]amino}-1-(2,2,2-trifluoroethyl)-1H-indol-2-yl)prop-2-yn-1-yl]amino}benzamide] | ++ (++ = 0.05 μM ≤ SC150 < 0.1 μM)
CCOc1cc(S(C)(=O)=O)ccc1NCC#Cc1cc2c(N[C@H]3CC[C@H](N4CC5CC(C4)O5)CC3)cccc2n1CC(F)(F)F [Compound 404A, 2-{3-[(2-ethoxy-4-methanesulfonyl-phenyl)amino]prop-1-yn-1-yl}-N-[(1R,4R)-4-{6-oxa-3-azabicyclo[3.1.1]heptan-3-yl}cyclohexyl]-1-(2,2,2-trifluoroethyl)-1H-indol-4-amine] | + (+ = 0 μM ≤ SC150 < 0.05 μM)
CCOc1cc(S(C)(=O)=O)ccc1NCC#Cc1cc2c(N[C@H]3CC[C@@H](N4CC5CC(C4)O5)CC3)cccc2n1CC(F)(F)F [Compound 405A, 2-{3-[(2-ethoxy-4-mcthanesulfonyl-phenyl)amino]prop-1-yn-1-yl}-N-[(1S,4S)-4-{6-oxa-3-azabicyclo[3.1.1]heptan-3-yl}cyclohexyl]-1-(2,2,2-trifluoroethyl)-1H-indol-4-amine] | + (+ = 0 μM ≤ SC150 < 0.05 μM)
CCNC(=O)c1ccc(NCC#Cc2cc3c(N[C@H]4CC[C@H](N5CC6CC(C5)O6)CC4)cccc3n2CC(F)(F)F)c(OC)c1 [Compound 406A, N-ethyl-3-methoxy-4-{[3-(4-{[(1R,4R)-4-{6-oxa-3-azabicyclo[3.1.1]heptan-3-yl}cyclohexyl]amino}-1-(2,2,2-trifluoroethyl)-1H-indol-2-yl)prop-2-yn-1-yl]amino}benzamide] | + (+ = 0 μM ≤ SC150 < 0.05 μM)
CS(=O)(=O)c1ccc(NCC#Cc2cc3c(N[C@H]4CC[C@H](N5CC6CC(C5)O6)CC4)cccc3n2CC(F)(F)F)c(OCC#N)c1 [Compound 407A, 2-(5-methanesulfonyl-2-{[3-(4-{[(1R,4R)-4-{6-oxa-3-azabicyclo[3.1.1]heptan-3-yl}cyclohexyl]amino}-1-(2,2,2-trifluoroethyl)-1H-indol-2-yl)prop-2-yn-1-yl]amino}phenoxy)acetonitrile] | + (+ = 0 μM ≤ SC150 < 0.05 μM)
CNC(=O)c1ccc(NCC#Cc2cc3c(N[C@H]4CC[C@H](N5CCC6(CCOC6)CC5)CC4)cccc3n2CC(F)(F)F)c(OC)c1 [Compound 409A, 3-methoxy-N-methyl-4-{[3-(4-{[(1R,4R)-4-{2-oxa-8-azaspiro[4.5]decan-8-yl}cyclohexyl]amino}-1-(2,2,2-trifluoroethyl)-1H-indol-2-yl)prop-2-yn-1-yl]amino}benzamide] | + (+ = 0 μM ≤ SC150 < 0.05 μM)
COc1cc(S(C)(=O)=O)ccc1NCC#Cc1cc2c(N[C@H]3CC[C@H](N4CCC5(CCOC5)CC4)CC3)cccc2n1CC(F)(F)F [Compound 410A, 2-{3-[(4-methane-sulfonyl-2-methoxy-phenyl)amino]prop-1-yn-1-yl}-N-[(1R,4R)-4-{2-oxa-8-azaspiro[4.5]decan-8-yl}cyclohexyl]-1-(2,2,2-trifluoroethyl)-1H-indol-4-amine] | + (+ = 0 μM ≤ SC150 < 0.05 μM)
